From patent publication US20210308182A1, “REGULATORY T CELL EPITOPES” (EpiVax Inc., priority 2020, published 2021)

Assays:
[1] = test system: human DR molecules; settings: cited from earlier work
[2] = test system: T cells of PBMCs from lupus patients; settings: randomly selected lupus patients; cited from earlier work
[3] = test system: CD4+ effector T cells; format: cell-based, human

Sequence | binding to soluble HLA class II molecules [1] | lupus patients whose PBMCs contain T cells that proliferate in response to the peptide [2] [%] | suppression of activated effector CD4+ T cells (CD4+/CD25-high/FoxP3-intermediate) reacting to Tetanus Toxoid [3] | suppression of proliferation of CD4+ effector T cells (CFSE) [3]
RIHMVYSKRSGKPRGYAFIEY (listed as Homo sapiens) [peptide 131-151] | binds to a large panel of human DR molecules | 40 |  | 
KTLYLQMNSLRAEDTAKH (listed as Homo sapiens) [SEQ ID NO: 7] |  |  | strongly suppressed | Suppressed
